# Measured values from doi:10.1101/2021.02.26.433144v1 (biorxiv, 2021).
# Where a chain is given by its changes, count along the chain named.
# How the values were obtained:
# Experiment in all cases: spectrophotometric oxidation assay, non-linear regression
# Conditions in all cases: 0.1 M sodium phosphate pH 7, 40 °C, 0-5 mM substrate
# [1] = molecular target: T1, TtPPO (Thermothelomyces thermophilus, UniProt G2QLD3, G312N/Y316V)
# T1 sequence (G2QLD3 23-424 G312N/Y316V): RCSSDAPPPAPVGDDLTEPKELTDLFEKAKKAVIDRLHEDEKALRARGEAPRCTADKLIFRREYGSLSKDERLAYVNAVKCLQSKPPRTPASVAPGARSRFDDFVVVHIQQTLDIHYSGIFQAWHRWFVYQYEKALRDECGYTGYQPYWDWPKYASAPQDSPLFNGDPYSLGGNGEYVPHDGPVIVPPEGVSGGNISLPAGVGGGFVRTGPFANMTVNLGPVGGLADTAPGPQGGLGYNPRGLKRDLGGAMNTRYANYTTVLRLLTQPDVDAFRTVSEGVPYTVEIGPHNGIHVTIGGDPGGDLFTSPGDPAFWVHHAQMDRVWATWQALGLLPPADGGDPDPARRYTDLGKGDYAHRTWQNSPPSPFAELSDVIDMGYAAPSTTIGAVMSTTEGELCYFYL
# [2] = molecular target: T2, TtPPO (Thermothelomyces thermophilus, UniProt G2QLD3)
# T2 sequence (G2QLD3 23-424): T1 sequence (G2QLD3 23-424 G312N/Y316V) with N290G, V294Y
# [3] = molecular target: T3, TtPPO (Thermothelomyces thermophilus, UniProt G2QLD3, Y316V)
# T3 sequence (G2QLD3 23-424 Y316V): T1 sequence (G2QLD3 23-424 G312N/Y316V) with N290G
# [4] = molecular target: T4, TtPPO (Thermothelomyces thermophilus, UniProt G2QLD3, L326A)
# T4 sequence (G2QLD3 23-424 L326A): T1 sequence (G2QLD3 23-424 G312N/Y316V) with N290G, V294Y, L304A
# [5] = molecular target: T5, TtPPO (Thermothelomyces thermophilus, UniProt G2QLD3, G312N)
# T5 sequence (G2QLD3 23-424 G312N): T1 sequence (G2QLD3 23-424 G312N/Y316V) with V294Y
# [6] = molecular target: T6, TtPPO (Thermothelomyces thermophilus, UniProt G2QLD3, G312N/L326A)
# T6 sequence (G2QLD3 23-424 G312N/L326A): T1 sequence (G2QLD3 23-424 G312N/Y316V) with V294Y, L304A
structure (smiles),measurement,setting,value
Oc1ccc(Cl)cc1O [4-chlorocatechol],Km,[1],4300 µM
same,Km,[2],1800 µM
same,Km,[3],2200 µM
same,Km,[4],400 µM
same,Km,[5],3500 µM
same,Km,[6],500 µM
